These results are taken from the supplement of paper PMC11208160.
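Also: IS621 recombinase and bridge RNA in Escherichia coli cells.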

A short description of the data set: recombinant barcode read abundance after kanamycin selection (control-corrected) (log10(CPM+1)); higher = more efficient recombination; sequences stand for … in AGTGCAGAGAAAATCGGCCAGTTTTCTCTGCCTGCAGTCCGCATGCCGT…AGATTTATGCAGCGGACTGCCTTTCTCCCAAAGTGATAAACCGGACAGTATCATGGACCGGTTTTCCCGGTAATCCGTATTTGCAAGGTTGGTTTCACT; site = the 11-nt target. Put shortly:
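Duplicate cultures were plated either on chloramphenicol/ampicillin LB agar, serving as control, or on chloramphenicol/ampicillin/kanamycin with 0.1 mM IPTG. These came from a pooled E. coli library co-electroporated with a donor plasmid, each member pairing a target with an IS621 bridge RNA target-binding loop. Recombination efficiency equals averaged, control-corrected counts per million of recombinant-junction barcodes. It is listed as log10(CPM+1).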
“TATCCTCCTTGGGTTCTAACCTGTTGCCG (site TATCCTCCTCG)”: the “recombinant barcode read abundance (log10)” value was 0.318.

For the sequence “TATCGGCCTTGGGTTCTAACCTGTTGCCT (site TAACGGCCTAG)”, the “recombinant barcode read abundance (log10)” value is 0.0814. As to “TATCGGCCTTGGGTTCTAACCTGTTGCCT (site TACCGGCCTAG)”, the “recombinant barcode read abundance (log10)” value came out at 0.0568. Turning to “TATCGGCCTTGGGTTCTAACCTGTTGCCT (site TAGCGGCCTAG)”, the “recombinant barcode read abundance (log10)” value worked out at 0.0857. As to “TATCGGCCTTGGGTTCTAACCTGTTGCCT (site TATCGGCCTAG)”, the “recombinant barcode read abundance (log10)” value amounted to 0.0996. Then “TATGCGCCTTGGGTTCTAACCTGTTGCCT (site CATGTGCCTAG)”, with 0.149; and “TATGCGCCTTGGGTTCTAACCTGTTGCCT (site TATGCGCCTAG)”, with 0.327. Turning to “TATGGGGCTTGGGTTCTAACCTGTTGCCT (site TATGAGGCTAG)”, the “recombinant barcode read abundance (log10)” value was determined as 0.145. In the case of “TATGGGGCTTGGGTTCTAACCTGTTGCCT (site TATGCGGCTAG)”, the “recombinant barcode read abundance (log10)” value came out at 0.0621. Then “TATGGGGCTTGGGTTCTAACCTGTTGCCT (site TATGGGGCTAG)”, with 0.246; and “TATGGGGCTTGGGTTCTAACCTGTTGCCT (site TATGTGGCTAG)”, with 0.0518.

Regarding “TATGTACCTTGGGTTCTAACCTGTTGCCT (site AATGTACCTAG)”, the “recombinant barcode read abundance (log10)” value turned out to be 0.052. In the case of “TATGTACCTTGGGTTCTAACCTGTTGCCT (site CATGTACCTAG)”, the “recombinant barcode read abundance (log10)” value was found to be 0.234. On to “TATGTACCTTGGGTTCTAACCTGTTGCCT (site GATGTACCTAG)”, for which the “recombinant barcode read abundance (log10)” value was 0.101. Regarding “TATGTACCTTGGGTTCTAACCTGTTGCCT (site TATGTACCTAG)”, the “recombinant barcode read abundance (log10)” value was found to be 1.46. Regarding “TATGTAGCTTGGGTTCTAACCTGTTGCCA (site TATGTAGCTAG)”, the “recombinant barcode read abundance (log10)” value was 0.22. For the sequence “TATGTAGCTTGGGTTCTAACCTGTTGCCA (site TATGTAGCTCG)”, the “recombinant barcode read abundance (log10)” value came out at 0.0344.

Turning to “TATGTAGCTTGGGTTCTAACCTGTTGCCA (site TATGTAGCTGG)”, the “recombinant barcode read abundance (log10)” value was found to be 0.201. In the case of “TATGTAGCTTGGGTTCTAACCTGTTGCCA (site TATGTAGCTTG)”, the “recombinant barcode read abundance (log10)” value stood at 1.05. As to “TATGTGGCTTGGGTTCTAACCTGTTGCCT (site TATGAGGCTAG)”, the “recombinant barcode read abundance (log10)” value was determined as 0.551. Consider “TATGTGGCTTGGGTTCTAACCTGTTGCCT (site TATGCGGCTAG)”, for which the “recombinant barcode read abundance (log10)” value amounted to 0.296. With “TATGTGGCTTGGGTTCTAACCTGTTGCCT (site TATGGGGCTAG)”, the “recombinant barcode read abundance (log10)” value is 0.0271. Regarding “TATGTGGCTTGGGTTCTAACCTGTTGCCT (site TATGTGGCTAG)”, the “recombinant barcode read abundance (log10)” value was 0.179.

As to “TATGTGTCTTGGGTTCTAACCTGTTGCCT (site TAAGTGTCTAG)”, the “recombinant barcode read abundance (log10)” value worked out at 1.67.

Consider “TATGTGTCTTGGGTTCTAACCTGTTGCCT (site TACGTGTCTAG)”, for which the “recombinant barcode read abundance (log10)” value was 0.509.

Turning to “TATGTGTCTTGGGTTCTAACCTGTTGCCT (site TAGGTGTCTAG)”, the “recombinant barcode read abundance (log10)” value worked out at 0.0112. “TATGTGTCTTGGGTTCTAACCTGTTGCCT (site TATGTGTCTAG)”: the “recombinant barcode read abundance (log10)” value worked out at 2.01. Consider “TATTACCCTTGGGTTCTAACCTGTTGCCT (site TATTAACCTAG)”, for which the “recombinant barcode read abundance (log10)” value turned out to be 0.035. As to “TATTACCCTTGGGTTCTAACCTGTTGCCT (site TATTACCCTAG)”, the “recombinant barcode read abundance (log10)” value stood at 0.739.

As to “TATTACCCTTGGGTTCTAACCTGTTGCCT (site TATTAGCCTAG)”, the “recombinant barcode read abundance (log10)” value was 0.0773. Then “TATTACCCTTGGGTTCTAACCTGTTGCCT (site TATTATCCTAG)”, with 0.12; and “TATTCTACTTGGGTTCTAACCTGTTGCGG (site TATTCTACTAC)”, with 0.0937.
